# Data as given in doi:10.1101/208439v1 (biorxiv, 2017).
# Read-outs that look alike come from different tables or passages of the source.
# Assays:
# NSD2 SET domain [1] = target: T1, NSD2 SET domain (Homo sapiens, UniProt O96028); experiment: biochemical; parameters: Surface plasmon resonance binding to NSD2 SET domain
# T1 construct: SET domain, residues 934-1241, N-terminal His tag, E. coli
# T1 sequence (O96028 934-1241): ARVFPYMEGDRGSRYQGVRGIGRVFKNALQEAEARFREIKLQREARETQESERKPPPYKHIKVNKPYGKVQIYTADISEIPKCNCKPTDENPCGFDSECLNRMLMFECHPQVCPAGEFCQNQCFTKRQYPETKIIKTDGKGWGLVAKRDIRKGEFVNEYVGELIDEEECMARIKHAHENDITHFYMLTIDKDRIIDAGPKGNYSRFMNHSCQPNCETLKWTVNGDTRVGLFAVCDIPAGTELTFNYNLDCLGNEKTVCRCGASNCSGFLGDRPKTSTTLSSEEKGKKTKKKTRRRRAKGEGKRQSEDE
# Experimental: To support an on-target mechanism of action for the five inhibitors, surface plasmon resonance (SPR) was used to determine whether each inhibitor interacts with the catalytic SET domain of NSD2. […] Chaetocin bound the SET domain with an apparent dissociation constant of 20 nM. Additionally, the data indicated super-stoichiometric binding, which might be due to a binding ratio higher than 1:1 that is consistent with chaetocin’s two disulfide moieties forming adducts with the NSD2 protein, or compound aggregation (data not shown) ([56]).
# ASH1L = ASH1L (Homo sapiens, UniProt Q9NR48); settings: inhibitor; read-out: Control IC50 (µM), Chaetocin
# GLP = target: T2, GLP (Homo sapiens, UniProt Q9H9B1); experiment: biochemical
# T2 construct: gene EHMT1
# T2 sequence (Q9H9B1 1-1298): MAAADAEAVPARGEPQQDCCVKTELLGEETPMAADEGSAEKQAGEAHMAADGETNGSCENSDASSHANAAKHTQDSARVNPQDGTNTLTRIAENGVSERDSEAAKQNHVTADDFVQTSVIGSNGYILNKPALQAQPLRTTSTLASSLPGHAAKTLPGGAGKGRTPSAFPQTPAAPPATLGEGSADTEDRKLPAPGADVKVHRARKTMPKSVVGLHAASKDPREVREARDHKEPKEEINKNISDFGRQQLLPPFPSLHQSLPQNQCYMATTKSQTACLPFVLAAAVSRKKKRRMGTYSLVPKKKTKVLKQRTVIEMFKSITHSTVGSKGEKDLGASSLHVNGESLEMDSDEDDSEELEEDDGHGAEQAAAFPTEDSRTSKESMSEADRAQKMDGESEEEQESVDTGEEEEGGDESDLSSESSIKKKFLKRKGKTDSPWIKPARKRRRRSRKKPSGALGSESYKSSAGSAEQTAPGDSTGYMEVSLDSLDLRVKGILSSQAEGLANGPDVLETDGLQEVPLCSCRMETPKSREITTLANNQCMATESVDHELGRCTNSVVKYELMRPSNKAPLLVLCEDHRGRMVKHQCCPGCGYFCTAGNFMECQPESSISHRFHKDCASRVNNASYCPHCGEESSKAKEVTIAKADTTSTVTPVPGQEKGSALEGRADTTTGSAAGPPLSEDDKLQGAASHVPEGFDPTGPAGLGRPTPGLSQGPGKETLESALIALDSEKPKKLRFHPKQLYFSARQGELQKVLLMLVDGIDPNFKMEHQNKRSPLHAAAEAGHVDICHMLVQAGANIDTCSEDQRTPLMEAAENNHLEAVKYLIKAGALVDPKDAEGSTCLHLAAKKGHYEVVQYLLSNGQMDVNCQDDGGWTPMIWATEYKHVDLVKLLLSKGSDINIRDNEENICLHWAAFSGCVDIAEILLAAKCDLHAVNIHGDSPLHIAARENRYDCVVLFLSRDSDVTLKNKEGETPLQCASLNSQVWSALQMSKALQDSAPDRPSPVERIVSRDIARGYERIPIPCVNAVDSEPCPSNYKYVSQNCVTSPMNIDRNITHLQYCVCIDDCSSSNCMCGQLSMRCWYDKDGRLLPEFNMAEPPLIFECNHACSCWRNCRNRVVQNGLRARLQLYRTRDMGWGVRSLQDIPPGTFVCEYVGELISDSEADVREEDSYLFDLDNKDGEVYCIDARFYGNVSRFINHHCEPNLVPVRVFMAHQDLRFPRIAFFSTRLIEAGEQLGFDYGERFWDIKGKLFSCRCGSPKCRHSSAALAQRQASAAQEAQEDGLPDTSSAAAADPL
# PRMT7 = PRMT7 (Homo sapiens, UniProt Q9NVM4); experiment: biochemical
# Chain of PRMT7 (Q9NVM4 whole entry): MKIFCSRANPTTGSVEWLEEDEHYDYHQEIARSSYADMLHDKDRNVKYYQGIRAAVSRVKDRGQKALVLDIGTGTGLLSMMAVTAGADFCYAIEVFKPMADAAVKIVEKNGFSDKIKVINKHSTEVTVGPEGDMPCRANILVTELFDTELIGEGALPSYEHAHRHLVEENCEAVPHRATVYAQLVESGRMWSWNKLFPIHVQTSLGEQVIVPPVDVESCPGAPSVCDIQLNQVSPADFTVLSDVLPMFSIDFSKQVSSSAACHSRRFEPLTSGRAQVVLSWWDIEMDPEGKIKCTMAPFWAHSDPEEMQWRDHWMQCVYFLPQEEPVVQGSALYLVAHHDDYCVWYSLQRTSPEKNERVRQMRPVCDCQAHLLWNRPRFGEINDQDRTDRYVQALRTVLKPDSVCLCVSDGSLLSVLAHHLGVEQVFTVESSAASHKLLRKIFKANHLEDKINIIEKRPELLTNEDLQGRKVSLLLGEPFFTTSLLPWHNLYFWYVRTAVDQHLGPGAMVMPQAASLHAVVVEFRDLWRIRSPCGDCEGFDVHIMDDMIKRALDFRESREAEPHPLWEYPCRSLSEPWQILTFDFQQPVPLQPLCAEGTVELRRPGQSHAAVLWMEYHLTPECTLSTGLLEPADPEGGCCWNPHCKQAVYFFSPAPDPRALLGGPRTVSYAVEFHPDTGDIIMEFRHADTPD
# NSD3 = target: T3, NSD3 (Homo sapiens, UniProt Q9BZ95); experiment: biochemical
# T3 sequence (Q9BZ95 1021-1322): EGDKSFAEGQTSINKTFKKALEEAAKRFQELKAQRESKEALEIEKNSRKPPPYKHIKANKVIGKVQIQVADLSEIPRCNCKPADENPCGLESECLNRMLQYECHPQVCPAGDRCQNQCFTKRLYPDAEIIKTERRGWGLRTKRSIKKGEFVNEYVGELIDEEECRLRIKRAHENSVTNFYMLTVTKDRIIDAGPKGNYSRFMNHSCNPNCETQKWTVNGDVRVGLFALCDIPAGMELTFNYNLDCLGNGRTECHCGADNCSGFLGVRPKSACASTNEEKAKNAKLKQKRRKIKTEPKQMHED
# SET8 = target: T4, SET8 (Homo sapiens, UniProt Q9NQR1); experiment: biochemical
# T4 construct: gene KMT5A
# T4 sequence (Q9NQR1 1-393): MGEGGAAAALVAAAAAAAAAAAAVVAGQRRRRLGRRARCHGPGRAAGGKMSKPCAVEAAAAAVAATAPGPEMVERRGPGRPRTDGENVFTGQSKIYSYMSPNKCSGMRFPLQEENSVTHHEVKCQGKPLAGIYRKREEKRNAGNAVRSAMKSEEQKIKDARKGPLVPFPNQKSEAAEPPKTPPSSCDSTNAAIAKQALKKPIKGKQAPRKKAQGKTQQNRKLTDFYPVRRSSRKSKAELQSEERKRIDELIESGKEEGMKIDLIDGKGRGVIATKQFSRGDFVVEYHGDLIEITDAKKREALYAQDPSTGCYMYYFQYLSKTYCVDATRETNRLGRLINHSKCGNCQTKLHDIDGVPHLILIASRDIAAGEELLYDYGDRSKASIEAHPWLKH
# NSD1 = target: T5, NSD1 (Homo sapiens, UniProt Q96L73); experiment: HotSpot [3H]SAM filter-binding methyltransferase assay; assay type: biochemical
# T5 construct: residues 1538-2696, N-terminal His tag, insect cell/baculovirus
# T5 sequence (Q96L73 1538-2696): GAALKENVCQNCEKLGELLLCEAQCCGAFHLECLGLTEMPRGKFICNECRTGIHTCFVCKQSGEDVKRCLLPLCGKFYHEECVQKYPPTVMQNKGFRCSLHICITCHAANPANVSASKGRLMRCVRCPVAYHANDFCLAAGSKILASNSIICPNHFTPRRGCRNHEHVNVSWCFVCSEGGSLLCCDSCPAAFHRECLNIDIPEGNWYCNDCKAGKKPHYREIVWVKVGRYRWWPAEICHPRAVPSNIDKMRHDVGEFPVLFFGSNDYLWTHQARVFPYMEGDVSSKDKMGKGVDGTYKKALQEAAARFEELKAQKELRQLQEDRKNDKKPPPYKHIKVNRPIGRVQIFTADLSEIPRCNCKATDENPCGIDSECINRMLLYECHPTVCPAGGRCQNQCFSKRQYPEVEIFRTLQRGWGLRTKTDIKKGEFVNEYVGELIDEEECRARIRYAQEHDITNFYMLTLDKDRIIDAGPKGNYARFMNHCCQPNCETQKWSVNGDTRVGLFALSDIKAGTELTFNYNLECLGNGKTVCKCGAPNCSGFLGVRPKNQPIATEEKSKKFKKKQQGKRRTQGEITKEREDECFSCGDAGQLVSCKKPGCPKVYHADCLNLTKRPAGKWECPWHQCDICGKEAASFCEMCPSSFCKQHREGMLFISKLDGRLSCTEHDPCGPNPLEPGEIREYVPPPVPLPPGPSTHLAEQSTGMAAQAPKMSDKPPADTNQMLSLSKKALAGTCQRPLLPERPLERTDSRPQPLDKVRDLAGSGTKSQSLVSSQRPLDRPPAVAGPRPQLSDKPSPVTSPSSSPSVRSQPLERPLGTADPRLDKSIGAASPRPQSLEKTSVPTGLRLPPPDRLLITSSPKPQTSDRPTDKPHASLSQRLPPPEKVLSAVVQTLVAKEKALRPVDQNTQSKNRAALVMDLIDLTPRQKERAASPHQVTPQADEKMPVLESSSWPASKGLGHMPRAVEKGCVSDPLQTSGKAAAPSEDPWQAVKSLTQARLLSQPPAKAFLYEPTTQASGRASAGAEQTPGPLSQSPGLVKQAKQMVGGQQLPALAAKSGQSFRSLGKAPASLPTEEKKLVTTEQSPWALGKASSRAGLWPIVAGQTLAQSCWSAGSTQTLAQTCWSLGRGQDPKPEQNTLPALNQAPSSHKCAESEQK
# DNMT3b = target: T6, DNMT3b (Homo sapiens, UniProt Q9UBC3); experiment: as above; assay type: biochemical
# T6 construct: residues 2-853, N-terminal GST fusion, insect cell/baculovirus
# NSD2 SET domain [2] = target: T1, NSD2 SET domain; experiment: SPR Biacore 8K, single-cycle kinetics, […] model; assay type: binding
# [3] = apparent, super-stoichiometric binding, binder
smiles,measurement,setting,value
CN1C(=O)[C@@]23C[C@]4([C@]56C[C@@]78SS[C@@](CO)(C(=O)N7[C@H]5Nc5ccccc56)N(C)C8=O)c5ccccc5N[C@@H]4N2C(=O)[C@]1(CO)SS3 [Chaetocin],Kd,"NSD2 SET domain [1]; apparent, super-stoichiometric binding",20 nM
same,koff,NSD2 SET domain [1]; [3],4.59e-05 s⁻¹
same,kon,NSD2 SET domain [1]; [3],2210 M⁻¹ s⁻¹
same,IC50,ASH1L,0.1 µM
same,IC50,GLP,77000 nM
same,IC50,PRMT7,156000 nM
same,IC50,NSD3,90 nM
Cc1ccc(NC2=CC(=O)c3sc(C)nc3C2=O)cc1 [Ryuvidine],IC50,SET8,950 nM
"Nc1ncnc2c1ncn2[C@@H]1O[C@H](CSCC[C@H](N)C(=O)O)[C@@H](O)[C@H]1O [SAH, reference compound]",IC50,NSD1,9700 nM
same,IC50,DNMT3b,65 nM
C[S+](CC[C@H](N)C(=O)O)C[C@H]1O[C@@H](n2cnc3c(N)ncnc32)[C@H](O)[C@@H]1O (stereo partly shown) [SAM],koff,NSD2 SET domain [1]; read-out: koff,0.017 s⁻¹
same,kon,NSD2 SET domain [1]; read-out: kon,4060 M⁻¹ s⁻¹
same,Kd,NSD2 SET domain [2],4200 nM
